Drawing on patent US7649000B2, “Selective dipeptide inhibitors of kallikrein” (Vantia Limited, priority 2002, dated 2010), this text covers Ki and Selectivity for 17 molecules.

What all share (type): biochemical
The target of one assay is T1, Human plasma kallikrein (Homo sapiens, UniProt P03952).
T1 construct: purchased Callbiochem (Calbiochem)
Nature of the assay: Determination of the inhibition constant Ki for plasma kallikrein (chromogenic substrate S-2302, Dixon plot). To be noted: substrate S-2302, 37° C. As for the experimental part:
Determination of the Inhibition Constant Ki for Plasma Kallikrein
(§1) Inhibition of plasma kallikrein activity in vitro was determined using standard published methods (see e.g. Johansen et al., Int. J. Tiss. Reac. 1986, 8, 185; Shori et al., Biochem. Pharmacol., 1992, 43, 1209; Stüjrzebecher et al., Biol. Chem. Hoppe-Seyler, 1992, 373, 1025). Human plasma kallikrein (Callbiochem) was incubated at 37° C. with three different concentrations of the chromogenic substrate S-2302 (Chromogenix AB) and various concentrations of the test compound. Residual enzyme activity (initial rate of reaction) was determined by measuring the change in optical absorbance at 405 nm and the inhibitory constant Ki for the test compound as determined from a Dixon plot (Dixon, Biochem. J., 1953, 55, 170).

The next assay has as its target Human Tissue Kallikrein (Homo sapiens, UniProt P06870). The assay can be described thus: Enzyme selectivity: inhibition of human tissue kallikrein (substrate S-2266). As to conditions: for Selectivity: (Ki for Human Tissue Kallikrein)/(Ki for plasma kallikrein); for Ki: Human Tissue Kallikrein, substrate S-2266. The method, then: as §1, with “Reac. 1986, 8, 185;” left out, “Pharmacol., 1992, 43, 1209;” left out, “[…] Determination of Enzyme Selectivity Selected compounds were further screened for inhibitory activity against other trypsin-like proteases following the method of Example 59 and using the appropriate enzyme and chromogenic substrate (Chromogenix AB). The selectivity is given by: Selectivity=(Ki for test enzyme)/(Ki for plasma kallikrein)” for “J., 1953, 55, 170).”

The target in another assay is Plasmin (Homo sapiens, UniProt P00747). The assay can be described thus: Enzyme selectivity: inhibition of plasmin (substrate S-2390). The method, then: as §1, with “Reac. 1986, 8, 185;” left out, “Pharmacol., 1992, 43, 1209;” left out, “[…] Determination of Enzyme Selectivity Selected compounds were further screened for inhibitory activity against other trypsin-like proteases following the method of Example 59 and using the appropriate enzyme and chromogenic substrate (Chromogenix AB). The selectivity is given by: Selectivity=(Ki for test enzyme)/(Ki for plasma kallikrein)” for “J., 1953, 55, 170).”

The target in a further assay is T2, Trypsin (Bos taurus, UniProt P00760).
T2 sequence (P00760 24-246): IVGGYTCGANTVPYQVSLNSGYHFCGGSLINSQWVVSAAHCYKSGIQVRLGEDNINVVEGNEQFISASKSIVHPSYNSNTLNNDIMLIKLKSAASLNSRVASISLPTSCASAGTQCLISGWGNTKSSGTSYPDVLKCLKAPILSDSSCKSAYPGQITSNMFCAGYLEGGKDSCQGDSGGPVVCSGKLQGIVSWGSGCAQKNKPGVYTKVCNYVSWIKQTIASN
The assay can be described thus: Enzyme selectivity: inhibition of trypsin (substrate S-2222). As for the experimental part: as §1, with “Reac. 1986, 8, 185;” left out, “Pharmacol., 1992, 43, 1209;” left out, “[…] Determination of Enzyme Selectivity Selected compounds were further screened for inhibitory activity against other trypsin-like proteases following the method of Example 59 and using the appropriate enzyme and chromogenic substrate (Chromogenix AB). The selectivity is given by: Selectivity=(Ki for test enzyme)/(Ki for plasma kallikrein)” for “J., 1953, 55, 170).”

The target in the next assay is Thrombin (Homo sapiens, UniProt P00734). The assay can be described thus: Enzyme selectivity: inhibition of thrombin (substrate S-2238). The method, then:
as §1
Determination of Enzyme Selectivity
Selected compounds were further screened for inhibitory activity against other trypsin-like proteases following the method of Example 59 and using the appropriate enzyme and chromogenic substrate (Chromogenix AB). The selectivity is given by: Selectivity=(Ki for test enzyme)/(Ki for plasma kallikrein)

Where a name gives a salt, the structure may show the parent alone.

T1 sequence (P03952 391-638 limits assumed): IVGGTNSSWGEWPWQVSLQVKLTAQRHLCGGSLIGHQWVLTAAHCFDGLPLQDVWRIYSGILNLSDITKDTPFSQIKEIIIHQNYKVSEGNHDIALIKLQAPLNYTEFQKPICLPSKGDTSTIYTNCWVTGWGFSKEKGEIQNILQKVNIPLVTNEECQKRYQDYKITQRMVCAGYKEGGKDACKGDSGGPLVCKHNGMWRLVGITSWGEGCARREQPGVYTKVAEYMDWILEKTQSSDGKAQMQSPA
T1 sequence (P03952 20-390 partner limits assumed): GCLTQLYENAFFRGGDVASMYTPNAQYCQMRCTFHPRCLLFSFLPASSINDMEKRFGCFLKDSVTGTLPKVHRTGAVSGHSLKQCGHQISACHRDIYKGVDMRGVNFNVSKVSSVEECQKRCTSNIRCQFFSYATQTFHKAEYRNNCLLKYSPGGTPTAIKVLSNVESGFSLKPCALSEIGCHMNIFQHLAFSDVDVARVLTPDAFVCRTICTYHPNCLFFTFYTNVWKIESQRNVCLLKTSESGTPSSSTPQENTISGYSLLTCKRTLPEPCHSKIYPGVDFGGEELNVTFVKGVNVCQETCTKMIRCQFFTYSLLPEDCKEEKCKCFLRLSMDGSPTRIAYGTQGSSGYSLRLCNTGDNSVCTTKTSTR
Sequence of Human Tissue Kallikrein (P06870 25-262): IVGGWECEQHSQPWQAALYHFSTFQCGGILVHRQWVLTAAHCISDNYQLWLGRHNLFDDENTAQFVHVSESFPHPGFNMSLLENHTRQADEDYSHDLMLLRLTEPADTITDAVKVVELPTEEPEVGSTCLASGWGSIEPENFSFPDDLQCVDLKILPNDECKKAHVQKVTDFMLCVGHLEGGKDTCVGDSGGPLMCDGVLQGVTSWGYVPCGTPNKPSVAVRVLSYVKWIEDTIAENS
Sequence of Plasmin (P00747 97-810): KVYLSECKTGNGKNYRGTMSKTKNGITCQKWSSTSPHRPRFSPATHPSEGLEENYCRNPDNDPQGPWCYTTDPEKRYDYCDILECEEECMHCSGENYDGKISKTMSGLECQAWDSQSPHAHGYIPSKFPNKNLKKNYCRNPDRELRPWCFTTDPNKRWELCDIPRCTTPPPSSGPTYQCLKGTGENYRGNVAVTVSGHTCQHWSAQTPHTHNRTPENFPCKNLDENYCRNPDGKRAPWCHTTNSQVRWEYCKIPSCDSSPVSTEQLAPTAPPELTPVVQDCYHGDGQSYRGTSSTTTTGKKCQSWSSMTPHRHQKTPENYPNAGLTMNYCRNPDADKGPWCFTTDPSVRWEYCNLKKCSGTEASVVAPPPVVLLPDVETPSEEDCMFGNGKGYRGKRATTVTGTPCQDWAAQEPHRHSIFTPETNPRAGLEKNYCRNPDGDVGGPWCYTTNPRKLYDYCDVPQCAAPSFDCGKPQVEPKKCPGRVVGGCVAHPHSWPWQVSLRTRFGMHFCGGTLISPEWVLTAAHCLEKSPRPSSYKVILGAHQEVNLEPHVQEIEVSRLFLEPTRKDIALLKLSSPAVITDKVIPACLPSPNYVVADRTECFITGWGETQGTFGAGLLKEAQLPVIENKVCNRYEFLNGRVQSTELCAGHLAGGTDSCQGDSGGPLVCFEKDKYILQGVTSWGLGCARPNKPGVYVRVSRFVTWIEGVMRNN

As for `CCOc1ccc(C[C@@H](N)C(=O)N[C@H](C(=O)NC2CCN(C(=N)N)CC2)[C@H](OC)c2ccccc2)cc1` [Example 6, (2′S,2″R,3′R)-4-(2′-(2″-Amino-3″-(4′″-ethoxyphenyl)propanoylamino)-3′-methoxy-3′-phenyl-propanoylamino)piperidine-1-carboxamidine trifluoroacetate], the Ki (usually the equilibrium dissociation constant of an inhibitor or competing ligand from its target) at Human plasma kallikrein was 25 nM.

Turning to `CCCOc1ccc(C[C@@H](N)C(=O)N[C@@H](Cc2ccccc2)C(=O)NC2CCN(C(=N)N)CC2)cc1` [Example 34], the Ki at Human plasma kallikrein worked out at 7 nM.

For the molecule `CCOc1ccc(C[C@@H](NS(C)(=O)=O)C(=O)N[C@@H](Cc2ccccc2)C(=O)NC2CCN(C(=N)N)CC2)cc1` [Example 40], the Ki on Human plasma kallikrein was 9 nM. At Human Tissue Kallikrein, this molecule displayed a Selectivity of 210 and a Ki of 1950 nM.

Consider `N=C(N)N1CCC(NC(=O)[C@H](Cc2ccccc2)NC(=O)[C@@H](CC2CCC3CCCCC3C2)NCC(=O)O)CC1` (some centres unmarked) [Example 14], for which affinity at Human plasma kallikrein was put at a Ki of 2.6 nM.

`N=C(N)N1CCC(NC(=O)[C@H](Cc2ccccc2)NC(=O)[C@H](N)Cc2ccc(OCc3ccccc3)cc2)CC1` [Example 32] displayed a Ki on Human plasma kallikrein of 5.5 nM.

Take `CCOc1ccc(C[C@@H](NS(=O)(=O)c2ccccc2)C(=O)N[C@@H](Cc2ccccc2)C(=O)NC2CCN(C(=N)N)CC2)cc1` [Example 42]: the figures for the Ki on Human plasma kallikrein and at Human Tissue Kallikrein were 4.5 nM and 6800 nM, respectively. Further, the Selectivity on Human Tissue Kallikrein is given as 1,500.

For the molecule `N=C(N)N1CCC(NC(=O)[C@H](Cc2ccccc2)NC(=O)[C@@H](CC2CCCCC2)NCC(=O)O)CC1.O=C(O)C(F)(F)F` [Example 3, (2′S,2″R)-4-(2′-(2″-(Carboxymethylamino)-3″-cyclohexylpropanoylamino)-3′-phenyl-propanoylamino)piperidine-1-carboxamidine trifluoroacetate], the Ki was 3 nM at Human plasma kallikrein; 3200 nM on Plasmin (Plasmin, substrate S-2390); 825 nM on Trypsin (Trypsin, substrate S-2222); 6000 nM at Human Tissue Kallikrein; 310 nM at Thrombin (Thrombin, substrate S-2238). Also, the Selectivity on Plasmin ((Ki for Plasmin)/(Ki for plasma kallikrein)) is 1,000; on Trypsin ((Ki for Trypsin)/(Ki for plasma kallikrein)) it was 270; at Human Tissue Kallikrein, 2,000; at Thrombin ((Ki for Thrombin)/(Ki for plasma kallikrein)) it was 100.

Take `CCOc1ccc(C[C@@H](NC(=O)CC)C(=O)N[C@@H](Cc2ccccc2)C(=O)NC2CCN(C(=N)N)CC2)cc1` [Example 45]: the affinity at Human plasma kallikrein, expressed as Ki, was 3 nM. Moreover, on Human Tissue Kallikrein, the Selectivity was 16,000 and the Ki was 49000 nM.

Consider `CCCC(=O)N[C@H](Cc1ccc(OCC)cc1)C(=O)N[C@@H](Cc1ccccc1)C(=O)NC1CCN(C(=N)N)CC1` [Example 44], for which the affinity on Human plasma kallikrein corresponds to a Ki of 4.1 nM.

As to `CCOc1ccc(C[C@@H](NC(=O)c2ccccc2)C(=O)N[C@@H](Cc2ccccc2)C(=O)NC2CCN(C(=N)N)CC2)cc1.O=C(O)C(F)(F)F` [Example 4, (2′S,2″R)-4-(2′-(2″-Benzoylamino-3″-(4′″-ethoxyphenyl)propanoylamino)-3′-phenyl-propanoylamino)piperidine-1-carboxamidine trifluoroacetate], the affinity at Human plasma kallikrein, expressed as Ki, was 1.4 nM. In addition, at Human Tissue Kallikrein, the Selectivity is recorded as 13,000 and the Ki was 18500 nM.

As for `CCOc1ccc(C[C@@H](N)C(=O)N[C@H](C(=O)NC2CCN(C(=N)N)CC2)[C@H](O)c2ccccc2)cc1.O=C(O)C(F)(F)F` [Example 5, (2′S,2″R, 3′R)-4-(2′-(2″-Amino-3″-(4′″-ethoxyphenyl)propanoylamino)-3′-hydroxy-3′-phenyl-propanoylamino)piperidine-1-carboxamidine trifluoroacetate], at Human plasma kallikrein, affinity was put at a Ki of 6.6 nM. On Human Tissue Kallikrein, the Selectivity was >10,000 and the Ki was above 70000 nM.

The molecule `COC(=O)CN[C@H](CC1CCCCC1)C(=O)N[C@@H](Cc1ccccc1)C(=O)NC1CCN(C(=N)N)CC1` [Example 2, (2′S,2″R)-4-(2′-(3″-Cyclohexyl-2″-(methyloxycarbonylmethylamino)propanoylamino)-3′-phenylpropanoylamino)piperidine-1-carboxamidine trifluoroacetate] yielded a Ki on Human plasma kallikrein of 66 nM.

Molecule `COC(=O)CN[C@H](CC1CCC2CCCCC2C1)C(=O)N[C@@H](Cc1ccccc1)C(=O)NC1CCN(C(=N)N)CC1` (some centres unmarked) [Example 15] came in with a Ki at Human plasma kallikrein of 19 nM.

`CCOc1ccc(C[C@@H](N)C(=O)N[C@@H](Cc2ccccc2)C(=O)NC2CCN(C(=N)N)CC2)cc1.O=C(O)C(F)(F)F` [Example 1, (2′S,2″R)-4-(2′-(2″-Amino-3″-(4′″-ethoxyphenyl)propanoylamino)-3′-phenylpropanoyl-amino)piperidine-1-carboxamidine trifluoroacetate] displayed a Ki at Human plasma kallikrein of 4.5 nM. In addition, on Human Tissue Kallikrein, the Selectivity is given as 10,000 and the Ki turned out to be 45000 nM.

At Human plasma kallikrein, `CCOc1ccc(C[C@@H](NC(C)=O)C(=O)N[C@@H](Cc2ccccc2)C(=O)NC2CCN(C(=N)N)CC2)cc1` [Example 43] yielded a Ki of 7.3 nM. Also, at Human Tissue Kallikrein, the Selectivity was 9,400 and the Ki came to 69000 nM.

`CCOc1ccc(C[C@@H](NC)C(=O)N[C@@H](Cc2ccccc2)C(=O)NC2CCN(C(=N)N)CC2)cc1` [Example 39]: at Human plasma kallikrein, the Ki came out at 15 nM. On Human Tissue Kallikrein, this molecule registered a Selectivity of 930 and a Ki of 14000 nM.

In turn, `CCOc1ccc2c(c1)CN[C@@H](C(=O)N[C@@H](Cc1ccccc1)C(=O)NC1CCN(C(=N)N)CC1)C2` [Example 52] came in with a Ki at Human plasma kallikrein of 18 nM.
